Measured values: publication PMC12814185, “Receptor-Mediated Shuttling of a D‑Amino Acid Peptide Achieves High Nanomolar Cytosolic Concentrations” (Journal of the American Chemical Society, 2025)
Where two headings read alike, the source gives them in different places. Bridges are numbered along the chain shown (N, C = ends). Roman numbers before positions name the chains, in order. Triazole bridges read from a SMILES are 1,4-linked. Where no end group is shown, it is not given here. Side-chain parts run from the residue outwards. [ ]: non-standard residue; d: D form. The star is where a group is joined. X1 = CN1C(=CC=CC=CC2=[N+](CCCCCC(=O)*)c3ccc(S(=O)(=O)[O-])cc3C2(C)C)C(C)(C)c2cc(S(=O)(=O)O)ccc21; Lys(N3) = [N-]=[N+]=NCCCC[C@H](N)C(=O)O; Cit = NC(=O)NCCC[C@H](N)C(=O)O; d(hCys) = N[C@H](CCS)C(=O)O; PEG3 = NCCOCCOCCOCCC(=O)O; Pra = C#CC[C@H](N)C(=O)O

How the values were obtained:
[1] = system: HEK293_CMKLR1-eYFP, HMEC-1, MDA-MB-231 and THP-1 cells; assay: Quantification of total cellular peptide uptake in cell lysate; type: cell-based; details: 1 µM peptide, 72 h, fluorescence in lysate, all cell lines; performed thrice
Experimental: page 7: Quantification of total cellular peptide uptake of different cell lines MDA-MB-231 cells and stably transfected HEK293_CMKLR1-eYFP cells were seeded at 165,000 cells per well and HMEC-1 cells at 55,000 cells per well into poly-ᴅ-lysine coated 12-well plates in their respective cell culture medium. […] the cells and incubated for 72 h. Cells were then washed with PBS and detached with trypsin/EDTA. […] Suspended cells were washed thrice with Fluorobrite DMEMTM and collected by centrifugation at 500 g for 5 min after each step. Finally, cells were resuspended in […] Fluorobrite DMEMTM and cell density was determined with an automated cell counter (Cell Drop, DeNovix). Cell suspensions were then lysed by ultrasonic homogenization (U[…], Hielscher) for 2 × 10 s on ice to prevent self-quenching of Cy5 due to high local concentrations in vesicles. […] Quantification of receptor-mediated uptake in CMKLR1-expressing cell lines. (A) Cell-surface enzyme-linked immunosorbent assay (ELISA) for the quantification of CMKLR1 expression of different cell lines. […] For quantification, cells were detached, counted, lysed by ultrasonic homogenization, and fluorescence was measured in the lysate. Total peptide uptake per cell was calculated from a dilution series of Cy5-labeled peptide with known concentration. […]

[2] = target: T1, CMKLR1 (Homo sapiens, UniProt Q99788); assay: Ca2+ flux assay in COS-7_CMKLR1-eYFP_Δ6Gαqi4myr cells; type: cell-based; details: maximum signal over baseline normalized to peptide 1, at least two independent experiments in duplicate
T1 construct: expressed in transfected cells; host or cells: COS-7 (stably transfected, CMKLR1-eYFP + Δ6Gαqi4myr)
T1 sequence (Q99788 1-373): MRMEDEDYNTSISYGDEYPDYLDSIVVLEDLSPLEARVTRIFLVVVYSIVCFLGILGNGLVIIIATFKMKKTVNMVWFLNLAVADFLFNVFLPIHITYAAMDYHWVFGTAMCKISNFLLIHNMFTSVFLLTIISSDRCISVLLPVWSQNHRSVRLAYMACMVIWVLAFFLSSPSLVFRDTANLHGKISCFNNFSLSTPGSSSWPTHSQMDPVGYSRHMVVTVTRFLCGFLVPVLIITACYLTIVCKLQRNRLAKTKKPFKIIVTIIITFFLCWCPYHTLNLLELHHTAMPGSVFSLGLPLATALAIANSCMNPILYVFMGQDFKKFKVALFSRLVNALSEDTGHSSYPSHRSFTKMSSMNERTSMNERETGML
Experimental: (C) Activity of the cyclic chemerin-9 (cC9) derivatives at CMKLR1 tested in a Ca^2+ flux assay. Data points represent the mean ± SEM of at least two independent experiments performed in duplicate.
Calcium flux assay was performed with cells expressing CMKLR1 and the chimeric G protein Δ6Gαqi4myr.
The stably transfected COS-7_CMKLR1-eYFP_ Δ6Gαqi4myr cells were seeded at 25,000 cells per well into poly-ᴅ-lysine-coated 96-well plates (black µCLEAR, Greiner). The next day, cells were incubated with 2.3 µM Fluo-2-AM (Abcam) and 0.06% (v/v) Pluronic-F127 (Sigma) in assay buffer (2.5 mM probenecid (Sigma), 20 mM 4-(2-hydroxyethyl)-1-piperazineethanesulfonic acid (HEPES, Sigma) in Hanks' Balanced Salt Solution (HBSS, Biowest), pH 7.5) for 1 h. This solution was replaced by assay buffer, and basal Ca2+ signal (λex = 485 nm, λem = 525 nm) was measured for 20 s with a Flexstation 3 plate reader (Molecular Devices). Peptide dilutions were added, and the Ca2+ response was measured for 40 s. The maximum signal over baseline was calculated and normalized to peptide 1 (N3-cC9). Non-linear regression was performed using Prism 10 (GraphPad). Experiments were performed in technical duplicates and at least

In the case of “I: GSVSHHHHHHGGHHHH[PEG3][dK]([PEG3-X1])[dD][dW][dW][dP][dL][dA][dF][dE][dA][dL][dL][dR]GEV[Cit][PEG3][Pra]-NH2 / II: Ac-[Lys(N3)]YFP[d(hCys)]QFAFC-OH (triazole I:36-II:1; disulfide II:5-II:10) [3Cy]”, the “total peptide uptake per cell” value [1] is reported as “uptake slightly higher than that of 2Cy”, the EC50 ([2]; read-out: EC50) is reported as 220 nM and the EC50 ([2]; read-out: pEC50 ± SEM (converted)) is reported as 219 nM.
